Laboratory results from PMC9351465, “Mechanism-based heparanase inhibitors reduce cancer metastasis in vivo” (Proceedings of the National Academy of Sciences of the …, 2022).
“And” between values parts separate entries of the source, which are not always exact repeats. Equal values may be shown once.

Key:
[1] = target: T1, human platelet HPSE (Homo sapiens, UniProt Q9Y251); assay: cABPP of human platelet lysates, HPSE band
T1 sequence (Q9Y251 158-543 limits assumed): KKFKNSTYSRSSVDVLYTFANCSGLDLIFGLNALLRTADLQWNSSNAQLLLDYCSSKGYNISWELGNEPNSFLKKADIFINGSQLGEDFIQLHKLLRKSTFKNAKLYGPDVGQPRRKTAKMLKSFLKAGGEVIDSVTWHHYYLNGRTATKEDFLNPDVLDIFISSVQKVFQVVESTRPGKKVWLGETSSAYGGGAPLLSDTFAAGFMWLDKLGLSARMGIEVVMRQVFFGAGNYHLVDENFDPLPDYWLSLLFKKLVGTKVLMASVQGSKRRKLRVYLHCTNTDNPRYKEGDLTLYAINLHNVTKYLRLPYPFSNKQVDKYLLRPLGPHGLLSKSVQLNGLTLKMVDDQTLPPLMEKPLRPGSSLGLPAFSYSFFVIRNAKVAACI
T1 sequence (Q9Y251 36-109 limits assumed): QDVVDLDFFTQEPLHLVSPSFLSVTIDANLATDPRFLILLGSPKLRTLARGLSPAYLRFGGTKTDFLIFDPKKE

[2] = tested on: B16 melanoma cells; assay: B16 murine melanoma experimental lung metastasis model; assay type: in vivo, mouse; details: C57BL/J6 mice, i.p. 300 nmol 2 or 150 μg SST0001, then i.v. B16 cells with 2 nmol 2 or 10 μg SST0001; after 14 d; vs PBS
Protocol: We initially tested a B16 murine melanoma metastasis model, measuring the formation of metastatic lung tumors by B16 melanoma cells after intravenous (i.v.) injection. The efficacy of covalent HPSE inhibition by 2 was compared to SST0001 (Roneparstat), a current best-in-class HPSE inhibitor and clinical trial candidate (SI Appendix, Fig. S1). Mice were inoculated intraperitoneally (i.p.) with 300 nmol of 2 (∼15 μmol/kg for a 20 g mouse), or 150 μg SST0001, followed by an i.v. injection of B16 cells alongside 2 nmol 2 or 10 μg SST0001.
For HS-degradation assays, ECM coated dishes were incubated with 200 ng recombinant HPSE in 1 mL reaction mixture (10 mM buffer Phosphate-Citrate pH 6.0, 50 mM NaCl, 1 mM DTT, 1 mM CaCl2) containing HPSE inhibitors or DMSO control. […] The Sepharose 6B column was eluted with PBS, and 35S radioactivity of 0.2 mL fractions quantitated using a liquid scintillation analyzer (Packard BioScience) (11). […]
Cells in the upper chamber were separated by Matrigel from a lower chamber containing 600 µL DMEM, supplemented with 10% FBS. […] 10 randomly selected microscopic fields were recorded, and cell invasion calculated using ImageJ, by quantitating the percentage of the field stained by crystal violet. […]
Mice were sacrificed after 14 days and the lungs were dissected, photographed and evaluated for the number of metastatic foci/lung. […]

[3] = target: T2, HPSE (Homo sapiens, UniProt Q9Y251); assay: colorimetric fondaparinux cleavage assay; assay type: biochemical; details: 200 ng/mL HPSE, 100 µM fondaparinux, pH 5.0, 37°C, 18 h, n = 2; read-out: IC50, HPSE-mediated fondaparinux cleavage
T2 sequence (Q9Y251 158-543 limits assumed): T1 sequence (Q9Y251 158-543 limits assumed)
T2 sequence (Q9Y251 36-109 limits assumed): T1 sequence (Q9Y251 36-109 limits assumed)
Protocol: We next investigated the ability of our inhibitors to abrogate HPSE processing of its native oligosaccharide substrates, using a colorimetric assay that detects cleavage of the synthetic HS pentasaccharide fondaparinux ([49]). […]
Fondaparinux cleavage was performed essentially as previously described (9). Briefly, assays were carried out in 96 well plates (Nunc) pretreated with 4% BSA in TBS-T (20 mM Tris pH 7.4, […]
100 µL reactions were set up in 40 mM NaOAc pH 5.0 buffer, containing final concentrations of 200 ng/mL HPSE, 100 µM Fondaparinux (Arixtra) and specified concentrations of inhibitors.
Reactions were incubated at 37°C for 18 h, then quenched with 100 µL 0.1 M NaOH supplemented with 1.7 mM WST-1 tetrazolium salt, and incubated at 60°C for 1 h. Absorbance at 584 nm was read using an ELISA plate reader (BIO-TEK Instruments). All reactions were carried out in technical duplicate. Data were plotted and analyzed using Sigmaplot (Systat). […]

[4] = target: T2, HPSE; assay: competitive activity-based protein profiling (cABPP) with ABP 7, recombinant HPSE; details: recombinant HPSE 20 nM, 1 h preincubation at 37°C, then 100 nM ABP 7, pH 5.5

CC(=O)N[C@H]1[C@@H](O[C@H]2[C@H](O)[C@@H](O)[C@@H]3O[C@@H]3[C@@H]2C(=O)O)O[C@H](CO)[C@@H](O)[C@@H]1O [compound 2]
IC50 ([1]; HPSE IC50, human platelet lysates, cABPP, n = 3): ~530 nM and 530 nM
selectivity of HPSE inhibition in platelet lysates ([1]; human platelet lysates containing both HPSE and GUSB): highly selective inhibition of human platelet HPSE
lung metastases (metastatic foci/lung) [2]: marked reduction in lung growths
IC50 [3]: 460 nM and ~460 nM
HPSE inhibition (cABPP) [4]: nanomolar HPSE inhibition potencies
